Reference: US20200171028A1, “METALLOENZYME INHIBITOR COMPOUNDS” (Viiamet Pharmaceuticals Holdings, LLC, priority 2017, published 2020)

Legend:
Type in all cases: biochemical
HDAC11 = biological target: T1, HDAC11 (Homo sapiens, UniProt Q96DB2); test: HDAC11 enzymatic assay; conditions: Table 3 comparison results
T1 sequence (Q96DB2 1-347): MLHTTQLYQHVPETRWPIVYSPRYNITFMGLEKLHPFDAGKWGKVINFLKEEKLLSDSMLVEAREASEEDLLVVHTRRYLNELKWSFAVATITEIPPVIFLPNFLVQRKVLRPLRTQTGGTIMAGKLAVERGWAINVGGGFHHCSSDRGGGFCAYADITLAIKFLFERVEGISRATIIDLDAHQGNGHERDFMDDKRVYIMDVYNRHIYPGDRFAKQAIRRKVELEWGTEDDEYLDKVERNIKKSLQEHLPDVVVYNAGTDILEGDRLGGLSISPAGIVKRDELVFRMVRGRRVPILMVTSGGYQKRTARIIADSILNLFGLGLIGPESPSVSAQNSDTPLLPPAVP
Description: (§1) All enzymatic reactions were conducted in duplicate at room temperature for 17 hours in a 50 μl mixture containing HDAC assay buffer (50 mM Tris-HCl, pH 7.4, 137 mM NaCl, 2.7 mM KCl, 0.05% Tween 20, 5 μg BSA), an HDAC substrate, an HDAC enzyme, and a test compound. Compound dilution was prepared ten-fold higher than the final concentration of the compounds with 10% DMSO in HDAC assay buffer and 5 al of the dilution was added to a 50 al reaction so that the final concentration of DMSO is 1% in all of reactions. After enzymatic reactions, 50 μl of HDAC Developer was added to each well and the plate was incubated at room temperature for an additional 20 minutes. Fluorescence intensity was measured at an excitation of 360 nm and an emission of 460 nm using a Tecan Infinite M1000 or Biotek Synergy microplate reader. The fluorescent intensity data were analyzed using the computer software, Graphpad Prism. In the absence of the compound, the fluorescent intensity (Ft) in each data set was defined as 100% activity. In the absence of HDAC, the fluorescent intensity (Fb) in each data set was defined as 0% activity. The percent activity in the presence of each compound was calculated according to the following equation: % activity=(F−Fb)/(Ft−Fb), where F=the fluorescent intensity in the presence of the compound. […]

HDAC8 = biological target: T2, HDAC8 (Homo sapiens, UniProt Q9BY41); test: HDAC8 enzymatic assay
T2 sequence (Q9BY41 1-377): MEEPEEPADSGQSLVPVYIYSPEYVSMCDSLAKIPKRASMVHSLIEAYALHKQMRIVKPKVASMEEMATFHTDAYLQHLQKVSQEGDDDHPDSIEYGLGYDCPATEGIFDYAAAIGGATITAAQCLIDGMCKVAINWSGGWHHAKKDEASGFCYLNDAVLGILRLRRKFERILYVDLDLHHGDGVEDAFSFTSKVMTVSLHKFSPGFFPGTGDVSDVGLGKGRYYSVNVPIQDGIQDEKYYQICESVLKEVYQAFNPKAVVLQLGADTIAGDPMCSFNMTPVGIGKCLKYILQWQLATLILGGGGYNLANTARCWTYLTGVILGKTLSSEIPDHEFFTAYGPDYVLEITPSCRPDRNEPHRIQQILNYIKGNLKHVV
Description: as §1

HDAC7 = biological target: T3, HDAC7 (Homo sapiens, UniProt Q8WUI4); test: HDAC7 enzymatic assay; conditions: Table 3 comparison results
T3 sequence (Q8WUI4 1-952): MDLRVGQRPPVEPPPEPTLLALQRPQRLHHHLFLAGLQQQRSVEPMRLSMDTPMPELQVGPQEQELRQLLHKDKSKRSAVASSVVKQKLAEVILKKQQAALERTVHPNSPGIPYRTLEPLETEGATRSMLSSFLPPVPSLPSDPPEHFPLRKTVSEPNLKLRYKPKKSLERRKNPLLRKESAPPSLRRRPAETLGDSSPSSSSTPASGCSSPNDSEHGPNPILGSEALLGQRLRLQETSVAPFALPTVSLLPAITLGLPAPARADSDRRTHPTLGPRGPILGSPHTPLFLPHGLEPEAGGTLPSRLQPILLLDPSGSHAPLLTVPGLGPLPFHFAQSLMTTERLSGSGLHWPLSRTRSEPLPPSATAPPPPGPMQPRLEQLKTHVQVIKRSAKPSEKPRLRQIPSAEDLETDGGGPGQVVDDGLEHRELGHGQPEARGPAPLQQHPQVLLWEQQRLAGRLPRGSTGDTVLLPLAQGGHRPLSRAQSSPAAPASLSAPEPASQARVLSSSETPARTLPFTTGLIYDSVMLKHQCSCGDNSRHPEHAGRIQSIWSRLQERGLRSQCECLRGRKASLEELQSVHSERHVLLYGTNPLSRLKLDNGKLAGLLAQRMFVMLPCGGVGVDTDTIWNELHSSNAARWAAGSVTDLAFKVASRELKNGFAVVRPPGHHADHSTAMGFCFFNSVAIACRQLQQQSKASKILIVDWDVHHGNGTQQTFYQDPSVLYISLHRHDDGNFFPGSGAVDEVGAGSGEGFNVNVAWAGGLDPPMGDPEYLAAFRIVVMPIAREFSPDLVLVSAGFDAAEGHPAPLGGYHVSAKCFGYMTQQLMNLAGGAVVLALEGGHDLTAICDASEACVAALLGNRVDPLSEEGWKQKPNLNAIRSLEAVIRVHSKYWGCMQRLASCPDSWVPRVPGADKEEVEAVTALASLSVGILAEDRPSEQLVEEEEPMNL
Description: as §1

HDAC4 = HDAC4 (Homo sapiens, UniProt P56524); test: HDAC4 enzymatic assay; conditions: Table 3 comparison results
Description: as §1

HDAC10 = biological target: T4, HDAC10 (Homo sapiens, UniProt Q969S8); test: HDAC10 enzymatic assay; conditions: Table 3 comparison results
T4 sequence (Q969S8 1-669): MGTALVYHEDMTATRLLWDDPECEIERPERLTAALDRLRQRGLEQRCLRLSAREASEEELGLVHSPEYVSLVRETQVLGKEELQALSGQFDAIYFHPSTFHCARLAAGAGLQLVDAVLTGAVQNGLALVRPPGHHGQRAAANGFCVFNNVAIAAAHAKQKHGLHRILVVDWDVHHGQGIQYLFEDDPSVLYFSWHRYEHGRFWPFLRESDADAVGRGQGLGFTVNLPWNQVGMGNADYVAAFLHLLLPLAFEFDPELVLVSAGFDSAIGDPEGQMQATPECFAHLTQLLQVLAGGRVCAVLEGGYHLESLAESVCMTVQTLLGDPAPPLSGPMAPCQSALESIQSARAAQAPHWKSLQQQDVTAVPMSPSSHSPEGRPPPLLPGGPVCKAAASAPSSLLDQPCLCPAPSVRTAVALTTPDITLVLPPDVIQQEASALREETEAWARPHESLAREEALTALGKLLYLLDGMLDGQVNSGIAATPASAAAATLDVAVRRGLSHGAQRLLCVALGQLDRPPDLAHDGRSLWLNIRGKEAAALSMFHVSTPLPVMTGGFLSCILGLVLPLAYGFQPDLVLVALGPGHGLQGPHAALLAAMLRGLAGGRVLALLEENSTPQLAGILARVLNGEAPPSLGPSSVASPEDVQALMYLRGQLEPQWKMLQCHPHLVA
Description: as §1

HDAC3/NCOR2 = HDAC3/NCOR2 (Homo sapiens, UniProt O15379); test: HDAC3 enzymatic assay
Description: as §1

HDAC6 = biological target: T5, HDAC6 (Homo sapiens, UniProt Q9UBN7); test: HDAC6 enzymatic assay; conditions: Table 3 comparison results
T5 sequence (Q9UBN7 1-1215): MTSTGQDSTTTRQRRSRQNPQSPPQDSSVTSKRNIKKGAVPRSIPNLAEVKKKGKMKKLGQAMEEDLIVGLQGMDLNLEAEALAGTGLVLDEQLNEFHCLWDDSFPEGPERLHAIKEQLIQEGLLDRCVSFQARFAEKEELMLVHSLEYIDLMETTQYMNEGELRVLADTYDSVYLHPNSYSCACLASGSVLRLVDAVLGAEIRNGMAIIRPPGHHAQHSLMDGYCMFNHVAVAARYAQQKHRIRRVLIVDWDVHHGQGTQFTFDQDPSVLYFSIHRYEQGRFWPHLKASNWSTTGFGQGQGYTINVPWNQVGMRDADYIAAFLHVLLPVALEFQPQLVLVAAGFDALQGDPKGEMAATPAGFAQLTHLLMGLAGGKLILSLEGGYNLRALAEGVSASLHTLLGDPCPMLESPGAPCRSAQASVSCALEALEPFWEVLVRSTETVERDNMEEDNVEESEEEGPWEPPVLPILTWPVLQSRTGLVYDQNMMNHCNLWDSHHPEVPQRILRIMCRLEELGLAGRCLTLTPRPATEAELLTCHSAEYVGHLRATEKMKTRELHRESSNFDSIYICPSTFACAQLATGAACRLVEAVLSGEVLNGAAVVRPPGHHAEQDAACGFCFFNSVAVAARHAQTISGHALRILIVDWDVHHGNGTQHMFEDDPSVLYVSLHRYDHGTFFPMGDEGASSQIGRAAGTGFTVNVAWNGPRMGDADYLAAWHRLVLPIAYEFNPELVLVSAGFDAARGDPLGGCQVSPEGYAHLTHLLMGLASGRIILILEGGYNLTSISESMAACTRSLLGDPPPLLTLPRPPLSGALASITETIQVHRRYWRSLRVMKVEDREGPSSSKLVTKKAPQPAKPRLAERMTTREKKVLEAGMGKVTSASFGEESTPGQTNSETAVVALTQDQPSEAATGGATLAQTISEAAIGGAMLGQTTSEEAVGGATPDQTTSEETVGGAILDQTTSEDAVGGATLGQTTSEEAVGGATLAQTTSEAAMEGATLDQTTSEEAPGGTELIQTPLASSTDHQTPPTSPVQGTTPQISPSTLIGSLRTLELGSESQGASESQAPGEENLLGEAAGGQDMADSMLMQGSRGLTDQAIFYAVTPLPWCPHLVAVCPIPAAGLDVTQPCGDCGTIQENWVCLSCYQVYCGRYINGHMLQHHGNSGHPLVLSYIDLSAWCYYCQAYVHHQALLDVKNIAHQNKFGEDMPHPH
Description: as §1

HDAC2 = HDAC2 (Homo sapiens, UniProt Q92769); test: HDAC2 enzymatic assay
Description: as §1

HDAC5 = HDAC5 (Homo sapiens, UniProt Q9UQL6); test: HDAC5 enzymatic assay; conditions: Table 3 comparison results
Description: as §1

HDAC9 = HDAC9 (Homo sapiens, UniProt Q9UKV0); test: HDAC9 enzymatic assay; conditions: Table 3 comparison results
Description: as §1

HDAC1 = HDAC1 (Homo sapiens, UniProt Q13547); test: HDAC1 enzymatic assay
Description: as §1

Chain of HDAC4 (P56524 whole entry): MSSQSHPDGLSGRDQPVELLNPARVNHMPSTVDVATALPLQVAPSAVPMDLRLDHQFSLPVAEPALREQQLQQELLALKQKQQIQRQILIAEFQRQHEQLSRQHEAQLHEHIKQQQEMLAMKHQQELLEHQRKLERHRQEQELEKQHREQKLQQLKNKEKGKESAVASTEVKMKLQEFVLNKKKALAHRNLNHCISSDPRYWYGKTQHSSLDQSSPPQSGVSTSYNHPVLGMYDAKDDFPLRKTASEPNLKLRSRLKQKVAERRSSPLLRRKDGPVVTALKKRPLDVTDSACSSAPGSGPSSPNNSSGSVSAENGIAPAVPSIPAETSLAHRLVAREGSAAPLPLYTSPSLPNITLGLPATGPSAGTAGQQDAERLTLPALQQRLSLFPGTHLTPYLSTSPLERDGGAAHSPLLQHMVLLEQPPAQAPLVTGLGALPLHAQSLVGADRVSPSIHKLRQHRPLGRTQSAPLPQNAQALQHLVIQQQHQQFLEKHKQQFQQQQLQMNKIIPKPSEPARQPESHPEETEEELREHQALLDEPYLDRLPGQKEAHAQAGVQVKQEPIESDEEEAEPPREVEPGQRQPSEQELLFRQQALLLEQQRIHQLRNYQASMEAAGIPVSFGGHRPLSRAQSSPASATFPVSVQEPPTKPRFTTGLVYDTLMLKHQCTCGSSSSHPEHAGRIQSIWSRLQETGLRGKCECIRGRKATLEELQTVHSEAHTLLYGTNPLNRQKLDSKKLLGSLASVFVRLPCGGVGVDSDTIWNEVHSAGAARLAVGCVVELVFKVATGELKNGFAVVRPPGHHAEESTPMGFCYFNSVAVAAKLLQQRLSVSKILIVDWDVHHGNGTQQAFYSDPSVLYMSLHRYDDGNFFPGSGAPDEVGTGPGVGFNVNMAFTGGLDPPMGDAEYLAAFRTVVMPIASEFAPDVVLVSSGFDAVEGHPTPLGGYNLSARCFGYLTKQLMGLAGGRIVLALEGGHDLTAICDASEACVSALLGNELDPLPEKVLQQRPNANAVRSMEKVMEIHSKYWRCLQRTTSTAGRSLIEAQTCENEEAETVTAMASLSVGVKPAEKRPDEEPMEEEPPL
Chain of HDAC1 (Q13547 whole entry): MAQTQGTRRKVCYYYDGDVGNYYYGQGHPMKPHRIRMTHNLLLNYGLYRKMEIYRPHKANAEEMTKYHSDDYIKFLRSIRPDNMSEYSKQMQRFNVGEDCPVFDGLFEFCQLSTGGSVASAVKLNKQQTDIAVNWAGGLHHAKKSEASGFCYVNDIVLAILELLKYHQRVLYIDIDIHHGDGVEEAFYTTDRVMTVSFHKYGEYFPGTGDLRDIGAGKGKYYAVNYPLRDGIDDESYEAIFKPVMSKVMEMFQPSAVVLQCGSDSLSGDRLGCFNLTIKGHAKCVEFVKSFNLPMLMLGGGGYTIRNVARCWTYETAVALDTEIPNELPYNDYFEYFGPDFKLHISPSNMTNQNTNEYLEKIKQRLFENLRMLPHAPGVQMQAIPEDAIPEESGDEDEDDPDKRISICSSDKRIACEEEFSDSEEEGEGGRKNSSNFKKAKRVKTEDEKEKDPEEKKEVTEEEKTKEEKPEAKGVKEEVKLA
Chain of HDAC3/NCOR2 (Q9Y618 395-489): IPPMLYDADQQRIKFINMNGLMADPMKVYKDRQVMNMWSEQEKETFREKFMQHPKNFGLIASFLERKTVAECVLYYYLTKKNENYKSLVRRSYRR
Chain of HDAC3/NCOR2 (O15379 whole entry): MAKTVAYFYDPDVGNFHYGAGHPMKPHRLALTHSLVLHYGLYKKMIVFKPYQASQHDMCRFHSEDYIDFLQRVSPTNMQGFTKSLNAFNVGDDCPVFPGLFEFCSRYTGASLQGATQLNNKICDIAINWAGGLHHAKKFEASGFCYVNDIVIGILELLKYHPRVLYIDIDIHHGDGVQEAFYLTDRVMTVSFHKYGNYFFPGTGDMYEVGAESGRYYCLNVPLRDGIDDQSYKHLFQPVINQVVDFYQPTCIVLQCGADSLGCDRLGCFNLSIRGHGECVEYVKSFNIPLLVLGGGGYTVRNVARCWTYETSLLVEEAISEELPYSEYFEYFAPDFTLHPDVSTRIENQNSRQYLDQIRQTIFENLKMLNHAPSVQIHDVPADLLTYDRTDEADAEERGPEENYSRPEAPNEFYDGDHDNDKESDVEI
Chain of HDAC5 (Q9UQL6 whole entry): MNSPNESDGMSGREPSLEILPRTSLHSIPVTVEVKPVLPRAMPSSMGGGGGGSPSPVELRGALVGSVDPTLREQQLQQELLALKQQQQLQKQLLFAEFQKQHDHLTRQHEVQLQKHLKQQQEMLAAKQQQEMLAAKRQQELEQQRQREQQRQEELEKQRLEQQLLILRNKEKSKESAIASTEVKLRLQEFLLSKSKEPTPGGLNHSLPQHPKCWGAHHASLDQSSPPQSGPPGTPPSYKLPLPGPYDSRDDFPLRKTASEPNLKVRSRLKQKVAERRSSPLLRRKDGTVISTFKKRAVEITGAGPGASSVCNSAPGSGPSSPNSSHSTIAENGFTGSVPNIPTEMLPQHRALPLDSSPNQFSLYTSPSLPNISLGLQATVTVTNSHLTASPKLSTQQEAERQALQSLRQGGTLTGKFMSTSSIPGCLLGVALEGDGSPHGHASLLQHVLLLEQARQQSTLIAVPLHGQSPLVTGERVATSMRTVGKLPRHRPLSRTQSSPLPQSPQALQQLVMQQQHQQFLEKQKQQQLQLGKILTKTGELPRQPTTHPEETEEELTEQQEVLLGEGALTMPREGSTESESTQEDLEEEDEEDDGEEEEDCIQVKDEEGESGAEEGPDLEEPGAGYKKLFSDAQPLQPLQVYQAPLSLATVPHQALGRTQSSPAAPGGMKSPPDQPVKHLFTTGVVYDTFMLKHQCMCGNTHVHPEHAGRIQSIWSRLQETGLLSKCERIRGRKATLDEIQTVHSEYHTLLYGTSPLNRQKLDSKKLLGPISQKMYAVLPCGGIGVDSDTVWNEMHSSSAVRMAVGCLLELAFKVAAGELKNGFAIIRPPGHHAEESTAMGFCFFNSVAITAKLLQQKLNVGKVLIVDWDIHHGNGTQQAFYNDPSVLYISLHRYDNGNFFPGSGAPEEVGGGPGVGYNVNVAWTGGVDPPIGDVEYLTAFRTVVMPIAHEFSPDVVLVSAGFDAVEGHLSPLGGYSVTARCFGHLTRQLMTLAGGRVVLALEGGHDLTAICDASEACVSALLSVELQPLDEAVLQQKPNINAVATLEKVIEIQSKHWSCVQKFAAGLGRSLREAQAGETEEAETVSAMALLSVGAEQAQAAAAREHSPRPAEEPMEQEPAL
Chain of HDAC9 (Q9UKV0 whole entry): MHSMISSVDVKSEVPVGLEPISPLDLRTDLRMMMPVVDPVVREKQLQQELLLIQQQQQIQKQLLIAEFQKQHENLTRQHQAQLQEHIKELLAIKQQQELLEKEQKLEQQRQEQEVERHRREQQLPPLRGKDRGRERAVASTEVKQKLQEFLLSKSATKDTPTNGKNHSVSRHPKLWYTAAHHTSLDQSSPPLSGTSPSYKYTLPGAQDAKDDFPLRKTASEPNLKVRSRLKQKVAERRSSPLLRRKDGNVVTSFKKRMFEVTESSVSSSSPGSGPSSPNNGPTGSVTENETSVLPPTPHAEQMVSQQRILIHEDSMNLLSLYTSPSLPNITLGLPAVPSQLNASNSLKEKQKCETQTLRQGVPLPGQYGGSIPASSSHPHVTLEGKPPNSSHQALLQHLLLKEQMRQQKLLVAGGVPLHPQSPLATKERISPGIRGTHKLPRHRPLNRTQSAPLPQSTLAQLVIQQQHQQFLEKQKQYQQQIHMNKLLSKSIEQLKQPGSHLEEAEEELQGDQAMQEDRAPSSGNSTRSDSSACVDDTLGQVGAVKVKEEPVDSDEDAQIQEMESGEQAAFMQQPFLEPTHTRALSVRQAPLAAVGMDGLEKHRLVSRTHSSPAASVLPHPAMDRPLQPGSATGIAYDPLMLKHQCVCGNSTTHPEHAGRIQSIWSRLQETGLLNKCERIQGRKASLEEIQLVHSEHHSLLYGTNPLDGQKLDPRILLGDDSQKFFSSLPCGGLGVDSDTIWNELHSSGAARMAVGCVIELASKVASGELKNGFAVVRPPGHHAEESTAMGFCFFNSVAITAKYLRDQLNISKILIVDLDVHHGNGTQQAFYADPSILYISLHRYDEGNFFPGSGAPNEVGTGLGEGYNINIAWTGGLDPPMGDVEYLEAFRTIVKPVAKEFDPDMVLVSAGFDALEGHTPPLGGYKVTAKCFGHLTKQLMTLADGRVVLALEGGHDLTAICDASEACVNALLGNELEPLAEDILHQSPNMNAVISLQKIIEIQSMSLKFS
Chain of HDAC2 (Q92769 whole entry): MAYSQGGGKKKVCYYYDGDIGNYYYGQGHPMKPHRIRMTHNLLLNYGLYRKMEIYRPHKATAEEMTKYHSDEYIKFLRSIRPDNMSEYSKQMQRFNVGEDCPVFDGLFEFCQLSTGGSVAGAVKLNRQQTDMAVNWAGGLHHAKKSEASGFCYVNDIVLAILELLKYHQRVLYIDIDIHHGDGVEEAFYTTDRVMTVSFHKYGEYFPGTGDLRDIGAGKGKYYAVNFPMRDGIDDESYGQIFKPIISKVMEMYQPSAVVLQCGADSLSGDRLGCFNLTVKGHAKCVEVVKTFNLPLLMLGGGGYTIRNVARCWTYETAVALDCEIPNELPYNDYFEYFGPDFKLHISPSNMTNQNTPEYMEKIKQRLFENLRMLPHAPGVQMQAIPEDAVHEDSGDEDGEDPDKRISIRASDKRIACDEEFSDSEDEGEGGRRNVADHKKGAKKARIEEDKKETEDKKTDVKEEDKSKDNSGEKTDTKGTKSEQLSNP

SMILES | IC50 (HDAC11) [nM] | IC50 (HDAC8) [nM] | IC50 (HDAC7) [nM] | IC50 (HDAC4) [nM] | IC50 (HDAC10) [nM] | IC50 (HDAC3/NCOR2) [nM] | IC50 (HDAC6) [nM] | IC50 (HDAC2) [nM] | IC50 (HDAC5) [nM] | IC50 (HDAC9) [nM] | IC50 (HDAC1) [nM]
FC(F)(F)c1nc(-c2cnc(NC3(c4ccccc4)CC3)nc2)no1 | > 30000 | > 30000 | 20 | 13 | 6400 | 4100 | 150 | 13000 | 250 | 77 | –
FC(F)c1nc(-c2cnc(NC3(c4ccccc4)CC3)nc2)no1 | – | – | – | – | – | – | 2900 | – | – | – | > 30000
